# Results reported in patent US20260061042A1, “POLYNUCLEOTIDE COMPOSITIONS AND USES THEREOF” (Pfizer Inc., priority 2024, published 2026).
# Residue numbers refer to the chain shown, from its start. Where two headings read alike, the source gives them in different places.
# Experiments:
# Assay in all cases: PapG Luminex ligand binding at equilibrium
# [1] = molecular target: T1, E. coli CFT073 PapG-II lectin domain PapGLD variant N96S G168A, SEQ ID NO: 17 (Escherichia coli, UniProt A0A0H2VAQ6, G188A/N116S); conditions: HEPES pH 7.4, 4° C. overnight
# T1 sequence (A0A0H2VAQ6 with tags, fused parts or gaps N116S/G188A): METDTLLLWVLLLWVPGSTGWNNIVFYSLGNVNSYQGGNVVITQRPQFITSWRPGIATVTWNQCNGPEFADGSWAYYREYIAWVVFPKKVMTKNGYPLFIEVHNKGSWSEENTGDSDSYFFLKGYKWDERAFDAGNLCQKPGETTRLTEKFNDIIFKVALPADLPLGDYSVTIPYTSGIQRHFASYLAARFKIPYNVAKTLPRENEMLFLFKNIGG
# Method: (§1) To determine the ability of PapGLD mutants to bind the porcine derived globotetraosyl ceramide ligand GalNAc-Gal-Gal-Glc-ceramide (GbO4), a Luminex ligand binding assay was developed. Surfactant Protein-A (SP-A) was coupled to the surface of MagPlex beads by EDC/NHS, to capture the lipid tail of the globotetraosyl ceramide. The Globotetraosyl ceramide/SP-A beads were incubated with an eight-point threefold titration of PapG in a 96 well flat bottom white plate with final volume of 100 microliters of 50 mM HEPES PH 7.4, 10 mM NaCl, 0.0005% Tween 20 shaking at 300 rpm, 4° C. overnight. After 20-24 hours the ligand binding plates were read on a FlexMap 3D plate reader for measurement of well-bead region specific MFI. Ligand binding equilibrium dissociation constants (Kd) were calculated assuming one site specific binding and interpolated using non-linear curve fitting (GraphPad Prism) as the ligand concentration needed to achieve half-maximal binding. The Luminex derived apparent Kd values are based on approximately fifty bead counts per assay sample.
# (§2) To determine Luminex ligand binding affinities of PapG mutants for the synthetic globoside ligand Gal-Glc-phenoxy-octyl-amine (GbO2Mpo), a Luminex ligand binding assay was developed based on the direct coupling of the amine reactive globoside ligand to the EDC/NHS activated carboxylic surface of MagPlex beads. Synthesis of GbO2Mpo ligand with an octyl amine linker (for coupling to beads) was performed via methods described previously. The GbO2Mpo beads were incubated with an 8-point, threefold titration of PapG in a 96-well flat bottom white plate with final volume of 100 μl of 50 mM HEPES pH 7.4, 10 mM NaCl, 0.0005% Tween 20 shaking at 300 rpm, 4° C. overnight. After 20-24 hours the ligand binding plates were read on a FlexMap 3D plate reader for measurement of well-bead region specific MFI.
# (§3) Binding of PapG proteins to GbO2 or GbO4 ligands was evaluated using a Luminex platform wherein ligands were coupled to MagPlex beads via surfactant protein A (for […]) or directly using […] conjugation (for […]). This assay was used to rank order binding affinities of the mutants, reported as Kd values interpolated from protein antigen titration curves (Table 7).
# [2] = molecular target: T2, E. coli CFT073 PapG-II lectin domain PapGLD variant N96S G147A, SEQ ID NO: 21 (Escherichia coli, UniProt A0A0H2VAQ6, G167A/N116S); conditions: HEPES pH 7.4, 4° C. overnight
# T2 sequence (A0A0H2VAQ6 with tags, fused parts or gaps N116S/G167A): T1 sequence (A0A0H2VAQ6 with tags, fused parts or gaps N116S/G188A) with G167A, A188G
# Method: as §1, §2, §3
# [3] = molecular target: T3, E. coli CFT073 PapG-II lectin domain PapGLD variant N96S G122A, SEQ ID NO: 20 (Escherichia coli, UniProt A0A0H2VAQ6, G142A/N116S); conditions: for Kd: HEPES pH 7.4, 4° C. overnight
# T3 sequence (A0A0H2VAQ6 with tags, fused parts or gaps N116S/G142A): T1 sequence (A0A0H2VAQ6 with tags, fused parts or gaps N116S/G188A) with G142A, A188G
# Method: as §1, §2, §3
# [4] = GbO2Mpo beads, read-out: Kd (GbO2)
# [5] = GbO4 beads, read-out: Kd (GbO4)
Substance,"Kd [1, 4] [nM]","Kd [2, 4] [nM]","Kd [3, 4] [nM]","Kd [1, 5] [nM]","Kd [2, 5] [nM]",binding to GbO4 (in words) [3],"Kd [3, 5] [nM]"
Gal-Glc-phenoxy-octyl-amine [GbO2],2.7,4.6,1.4,–,–,–,–
GalNAc-Gal-Gal-Glc-ceramide [GbO4],–,–,–,> 100,> 300,reduced binding,> 300
